Results on three molecules are retold here after patent US20040202652A1, “Methods and compositions for control of bone formation via modulation of leptin activity” (Baylor College of Medicine, priority 1999, published 2004).

Entries after “also recorded” stand apart in the source; their conditions may differ.

The test system of data set [1] is ob/ob mice. In words: 17 β-estradiol pellet treatment to correct hypogonadism of ob/ob mice. The data set is classed as in vivo. The protocol: (§1) Histologic analysis was performed on undecalcified sections stained with the von Kossa reagent and counterstained with Kernechtrot. In 3 and 6 month-old mice the presence of many more thick trabeculae in the bones of ob/ob mice compared to those of wild-type mice was observed (FIG. 1B). The cortical bone was not affected. Histomorphometric quantification according to standard techniques were performed (Parfitt et al., 1987, J Bone Min Res 2, 595-610) using the Osteomeasure Analysis System (Osteometrics, Atlanta). Statistical differences between groups (n=4 to 6) were assessed by Student's test. […] The functional consequences of this increase in bone mass were analyzed by comparing the biomechanical properties of long bones of 6 month-old ob/ob mice, wild-type mice, and wild-type mice that have been ovariectomized (wild-type-ovx) for 4 months to mimic the hypogonadic state of the ob/ob mice. An assay in which femora were tested to failure by three-point bending on a servo-hydrolic testing machine (Zwick GmbH & Co.) at a constant displacement rate of 10 mm/min was used to determine failure load, which is a measure of the strength of the bones. […] Analysis of the bones of the db/db mice that have an inactivating mutation of the leptin receptor was also performed (Tartaglia et al., 1995, Cell 83, 1263-1271). Like the ob/ob mice, the db/db mice are obese and hypogonadic. There was an increase in the number of trabeculae in both long bones and vertebrae similar to that observed in ob/ob mice (FIG. IE) resulting in a 3-fold increase in bone volume compared to wild-type mice (FIG. 1F).
Nevertheless, to address this point more thoroughly the hypogonadism of the ob/ob mice was exploited. Hypogonadism normally leads to an increase in osteoclasts number and in bone resorptive activity. Thus, if the osteoclasts of the ob/ob mice were functional, correcting the hypogonadism of these mice should decrease their rate of bone resorption by diminishing the number of osteoclasts and thereby should further increase their bone mass. On the other hand, if the osteoclasts of the ob/ob mice were not functioning properly, correcting their hypogonadism should not affect the severity of their high bone mass phenotype. To determine which of these two possibilities was correct, 17 β-estradiol or placebo pellets (Innovative Research of America) were implanted subcutaneously in 2-month-old female ob/ob mice to maintain a serum concentration of 250 pg/mL. These animals were analyzed after a 3-month treatment period.

Another data set has as its system Stat3 phosphorylation. The data set is described as follows: Western blot analysis of Stat3 phosphorylation in primary osteoblast cultures. The data set is classed as cell-based, mice. On the procedure:
(§2) Expression of leptin in osteoblasts was studied in subconfluent primary osteoblast cultures from wild-type mice which were maintained for 4 days in 10% FBS mineralization medium and then subsequently switched to 0.5% for 2 days and replaced daily. Medium was replaced 2 hours before a 20 min treatment with 80 ng/mL leptin (Sigma) or 40 ng/mL Oncostatin M (R&D Diagnostics) or vehicle. RNA extractions were performed using Triazol (Gibco). Northern blots were performed with 15 μg of total RNA according to methods well known in the art.
To determine whether or not leptin could transduce its signal in osteoblasts, serum-starved primary osteoblasts isolated from wild-type mice were treated with leptin. […]
(§3) The phosphorylation of Stat3, a downstream effector of leptin signaling in its target cells (Tartaglia et al., 1995, Cell 83, 1263-1271; Baumann et al., 1996, Proc Natl Acad Sci USA 93, 8374-8378; Ghilardi et al., 1996, Proc Nati Acad Sci USA 93, 6231-6235; Vaisse et al., 1996, Nat Genet 14, 95-97), was monitored, in addition to the expression of two immediate early genes whose transcription is increased following leptin treatment of target cells (Elmquist et al., 1997, Endocrinology 138, 839-842). […]

In a further data set the test system is Tis11 and c-fos genes. In words: Northern blot analysis of immediate early gene expression in primary osteoblast cultures. The data set is classed as cell-based, mice. The settings on record: 20 min treatment. The protocol: as §2
as §3, with “839-842). As a positive control oncostatin-M that induces Stat3 phosphorylation and activates the expression of the same two immediate early genes in osteoblasts (Levy et al., 1996, Endocrinology 137, 1159-1165) was utilized. Western blot analysis was performed to determine Stat3 phosphorylation as follows.” for “839-842).”

The test system of data set [2] is primary osteoblast cultures from wild-type mice. The data set is described as follows: long-term leptin treatment of primary osteoblast cultures (van Gieson and von Kossa staining). The data set is classed as cell-based. The settings on record: 1.2 μg/mL for 5 days, versus control (vehicle) cultures. The protocol: To determine whether or not leptin could transduce its signal in osteoblasts, serum-starved primary osteoblasts isolated from wild-type mice were treated with leptin. Primary osteoblast cultures from calvaria of newborn wild-type or db/db mice were established as previously described (Ducy et al., 1999, Genes Dev 13, 1025-1036) and maintained in mineralization medium (αMEMI 0.1 mg/mL ascorbic acid; 5 mM […]) supplemented with 10% […]. Cultures of mutant cells were maintained in this medium for 15 days before analysis. Cultures derived from wild-type mice were maintained for 10 days in this medium then the percentage of serum was reduced to 0.5% and the medium supplemented with 1.2 μg/mL leptin (Sigma) or vehicle for 5 days.
Finally, the effect of a long-term leptin treatment of primary osteoblast cultures from wild-type mice on extracellular matrix synthesis and bone matrix mineralization was determined. The presence of a collagen-rich extracellular matrix and of mineralization nodules was assessed by whole-mount staining of the cultures by the van Gieson and von Kossa reagent, respectively. No difference was observed when assessing collagen synthesis or mineralization nodule formation between control and leptin-treated cultures (FIG. 5E).

Data set [3] deals with ob/ob mice. In words: intracerebroventricular infusion of leptin in ob/ob mice, bone histology and histomorphometry. In kind it is in vivo. The settings on record: ovariectomized ob/ob mice, third ventricle, 8 ng/hr, 28 days, versus PBS. The protocol:
as §1
The increase in bone mass could be due to an increase in osteoblastic bone formation, to a decrease in osteoclastic bone resorption, or to a combination of both abnormalities. To study osteoblast function in vivo, the rate of bone formation was quantified following double labeling with calcein, a marker of newly formed bone (FIG. 3A) as described (Ducy et al., 1999, Genes Dev 13, 1025-1036). Calcein was injected twice at 8 day intervals and animals were sacrificed two days later. In 3 month-old, and 6 month-old ob/ob mice there was a 70% and 60%, respectively, increase of the bone formation rate compared to the one of wild-type littermates (FIG. 3B).
Lastly, the issue of whether leptin binding to its hypothalamic receptor could correct the high bone mass phenotype of the ob/ob mice as it can rescue their obesity phenotype was addressed. To that end pumps delivering either PBS or leptin (8 ng/hr) in the third ventricle of ob/ob mice were inserted as follows. Animals were anesthetized with avertin and placed on a stereotaxic instrument (Stoelting). The calvaria was exposed and a 0.7 mm hole was drilled upon bregma. A 28-gauge cannula (Brain infusion kit U, Alza) was implanted into the third ventricle according to the following coordinates: midline, −0.3 AP, 3 mm ventral (0 point bregma). The cannula was secured to the skull with cyanoacrylate, and attached with Tygon tubing to an osmotic pump (Alza) placed in the dorsal subcutaneous space of the animal. The rate of delivery was 0.25:1/hour (8 ng/hr of leptin (Sigma)) or PBS for 28 days. The dosage has been previously shown to have no effect when administered systemically (Halaas et al., 1997, Proc Nati Acad Sci USA 94, 8878-8883). […]

Data set [4] can be described thus: serum leptin radioimmunoassay in centrally infused ob/ob mice. In kind it is in vivo. The settings on record: after intracerebroventricular infusion, 8 ng/hr, 28 days. The protocol: The coexistence of a high bone mass phenotype and of hypogonadism was so exceptional that it raised the hypothesis that bone resorption might be defective in these mice. The increased urinary elimination of deoxypyridinoline crosslinks (Dpd), a biochemical marker of bone resorption (Eyre et al., 1988, Biochem 252, 494-500), in the ob/ob mice argued against this hypothesis (wild-type: 10.5±2.5 nM Dpd/mM creatinine; ob/ob: 24.0 b 4.0 nM Dpd/mM creatinine). Deoxypyridinoline crosslinks were measured in morning urines using the Pyrilinks-D immunoassay kit (Metra Biosystem). Creatinine values were used for standardization between samples (Creatinine kit, Metra Biosystem). Circulating concentration of […] and leptin were quantified by radioimmunoassays, using the third generation estradiol kit (Diagnostic system laboratories) and the mouse leptin RIA kit (Linco), respectively. […] Coadministration of an estrogen analog with an Ob or ObR inhibitor further increases the high bone mass phenotype.
Lastly, the issue of whether leptin binding to its hypothalamic receptor could correct the high bone mass phenotype of the ob/ob mice as it can rescue their obesity phenotype was addressed. […]

The conditions of data set [5]: 8 ng/hr dosage, systemic; cited from earlier work.
The mark [6] stands for this setting: end of the 3-month treatment period.
Setting [7] is: female ob/ob mice, subcutaneous pellets, 3-month treatment.

For the molecule `C[C@]12CC[C@@H]3c4ccc(O)cc4CC[C@H]3[C@@H]1CC[C@@H]2O` [17 β-estradiol], in the data set on ob/ob mice [1] (setting [6]), the “increase in bone volume, treated ob/ob mice compared to estradiol-treated wild-type mice” value is 50% and the “increase in bone volume, treated ob/ob mice compared to untreated wild-type mice” value is reported as 3 fold. Also, in the data set with ob/ob mice [1] (setting [7]), the “correction of hypogonadism (aspect of uteri, levels of estradiol in blood)” value is reported as “correction of the uterus atrophy”; the “high bone mass phenotype compared to placebo treated ob/ob mice” value is recorded as “further increase of the high bone mass phenotype”; the osteoclast number result was “normalization of the osteoclast number”. Moreover, in the data set with ob/ob mice [1] (female ob/ob mice, subcutaneous pellets, 3-month treatment, listed as estradiol), the “correction of hypogonadism (aspect of uteri, levels of estradiol in blood)” value is on record as “corrected their hypogonadism”. Moreover, the “bone trabeculae, histological analysis of vertebrae” value with ob/ob mice [1] (treated wt and even more treated ob/ob mice) is “significant increase in bone trabeculae”.
With “leptin: endogenous polypeptide product of an ob gene; polypeptide hormone (Sigma)”, the “Stat3 phosphorylation, several doses” value with Stat3 phosphorylation (several doses, physiologic and supraphysiologic) is on record as “failed to induce”. Besides, the “expression of Tis11 and c-fos” value in the data set with Tis11 and c-fos genes is “not”. Moreover, in data set [2], the “collagen synthesis (van Gieson staining)” value is recorded as “No difference; also recorded: No effect” and the “matrix mineralization / mineralization nodule formation (von Kossa staining)” value is given as “No difference; also recorded: No effect”. Further, in the data set on ob/ob mice [3], the “bone appearance, classical histology” value is “regained a normal appearance”; the bone formation rates result is “significantly decreased”; the bone volume result is recorded as “significantly decreased”; the number of trabeculae result is recorded as “fewer trabeculae”. Moreover, the trabeculae thickness entry in the data set on ob/ob mice [3] was “significantly decreased”. In addition, the “leptin in the serum” value in data set [4] is reported as “No leptin”. Also, the “effect of the dosage when administered systemically” value in data set [5] is “no effect”.

B1: Oncostatin-M: positive control that induces Stat3 phosphorylation and immediate early gene expression in osteoblasts (protein, UniProt P13725 26-221, looked up)
Oncostatin-M: AAIGSCSKEYRVLLGQLQKQTDLMQDTSRLLDPYIRIQGLDVPKLREHCRERPGAFPSEETLRGLGRRGFLQTLNATLGCVLHRLADLEQRLPKAQDLERSGLNIEDLEKLQMARPNILGLRNNIYCMAQLLDNSDTAEPTKAGRGASQPPTPTPASDAFQRKLEGCRFLHGYHRFMHSVGRVFSKWGESPNRSRR
Turning to B1, in the data set with Stat3 phosphorylation (primary osteoblasts from wild-type mice, serum-starved), the Stat3 phosphorylation result is “did induce”. Also, in the data set on Tis11 and c-fos genes, the “expression of Tis11 and c-fos” value is “quickly and transiently activated”.
